Assay results: patent US20060019933A1, “Process for preparing stabilized vitamin D” (priority 2004, published 2006)

Tests used:
[1] = Chemical stability of neat, crystalline vitamin D3 at 40° C. and various humidities; format: physicochemical; conditions: one week
Experimental: Stability of neat, crystalline vitamin D3 was investigated at 40° C. and 5%, 20%, 50%, 75% relative humidity (% RH) over the course of one week. This experiment was used as a baseline for comparison of vitamin D3 stability after formulation as indicated above. A pronounced dependence of degradation rate upon relative humidity was observed, as depicted in FIG. 1. Under low humidity conditions, loss of active occurred at a rate of 0.58%/day and 0.76%/day at 5% RH and 20% RH, respectively.

[2] = Stability of amorphous vitamin D3 cast as a thin film; format: physicochemical
From the text: In an additional experiment, vitamin D3 was cast as a thin film by evaporating a solution of vitamin D in ethyl acetate and the stability of this amorphous form of vitamin D was also investigated. […] The results of this and the previous experiment highlight the inherently low stability of vitamin D and the impact of both humidity and physical form (crystalline vs. amorphous) on degradation rates.

[3] = target: T1, vitamin D receptor (Homo sapiens, UniProt P11473); conditions: agonism at the vitamin D receptor without 1α-hydroxylation; cited from earlier work
T1 sequence (P11473 1-427): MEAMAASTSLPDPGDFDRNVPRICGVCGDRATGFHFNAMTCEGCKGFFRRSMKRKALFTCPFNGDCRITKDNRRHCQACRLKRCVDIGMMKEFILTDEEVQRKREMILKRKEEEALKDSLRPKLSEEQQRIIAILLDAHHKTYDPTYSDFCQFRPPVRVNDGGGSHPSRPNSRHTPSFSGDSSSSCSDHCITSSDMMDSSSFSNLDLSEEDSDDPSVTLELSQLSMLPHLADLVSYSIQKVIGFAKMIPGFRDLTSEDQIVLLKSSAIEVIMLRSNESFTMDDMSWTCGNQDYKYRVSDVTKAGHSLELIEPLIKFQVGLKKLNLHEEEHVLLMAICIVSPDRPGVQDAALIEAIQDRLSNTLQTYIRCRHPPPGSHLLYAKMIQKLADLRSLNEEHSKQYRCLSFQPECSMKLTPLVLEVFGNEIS

SMILES	rate of loss of active ([1]; 5% RH)	rate of loss of active ([1]; 20% RH)	degradation rate ([1]; 50% RH)	degradation rate ([1]; 75% RH)	degradation after 3 days ([2]; 25° C.)	degradation after 3 days ([2]; 40° C.)	degradation after 3 days ([2]; 40° C./75% RH)	intrinsic activity, fold lower than that of 1α,25-dihydroxy-cholecalciferol [3]
C=C1CC[C@H](O)C/C1=C/C=C1\CCC[C@]2(C)[C@@H]([C@H](C)CCCC(C)C)CC[C@@H]12 [vitamin D3, cholecalciferol]	0.58 %/day	0.76 %/day	5.5 %/day	10.8 %/day	Essentially complete degradation	Essentially complete degradation	Essentially complete degradation	–
C=C1CC[C@H](O)C/C1=C/C=C1\CCC[C@]2(C)[C@@H]([C@H](C)CCCC(C)(C)O)CC[C@@H]12 [25-hydroxy-cholecalciferol]	–	–	–	–	–	–	–	about 100 fold
